From patent US10617649B2 (Zhejiang Huahai Pharmaceutical Co., Ltd, priority 2016, dated 2020)

Columns and labels:
[1] = Stability of azacitidine solution as a function of the preparation temperature; assay type: physicochemical
[2] = Content of bacterial endotoxin; details: excipient used in Example 3
[3] = temperature of azacitidine solution higher than 6° C.

Row | SMILES | Stability of azacitidine in solution, compared between temperatures ([1]; solution prepared at 4-6° C. compared to 2-3° C.) | Stability of azacitidine in solution ([1]; temperature for preparing azacitidine solution controlled at 2-6° C.) | Content of azacitidine in solution [1, 3] | Related substances in solution [1, 3] | Content of bacterial endotoxin in excipient [2] [EU/g]
1 | Nc1ncn([C@@H]2O[C@H](CO)[C@@H](O)[C@H]2O)c(=O)n1 [azacitidine, Azacitidine] | the same stability | good stability | significantly decreased | significantly increased | 
2 | OC[C@@H](O)[C@@H](O)[C@H](O)[C@H](O)CO [mannitol, Mannitol] |  |  |  |  | 2.5
